In patent US20250295680A1, “NOVEL DUTOGLIPTIN FORMULATIONS AND THEIR PREPARATION” (Recardio Inc., priority 2022, published 2025):

Assay: Solubility of fatty acid sodium salts and salt precipitation/anion exchange with Dutogliptin tartrate
Type: physicochemical
Details: for Solubility 2-8° C. / Solubility 25° C.: volume for the stated amount of substance (0.41 mmol Dutogliptin tartrate, 0.83 mmol fatty acid salts); for Precipitation after addition of Dutogliptin tartrate solution: 100 mg/ml Dutogliptin tartrate solution, 2-8° C.
Experimental: Assuming that the ion lattice of Dutogliptin tartrate (dissolved in water) is pulled apart so that the individual Dutogliptin and tartrate ions are in solution, an exchange should take place by adding excess fatty acid anions. The resulting hydrophobic salt should form and precipitate due to reduced solubility.
To promote the exchange, the salts, which were dissolved at room temperature, were cooled to 2-8° C. after the addition of Dutogliptin tartrate and stirred overnight.
Five different physiologic fatty acids (as sodium salts) were prepared by anion exchange of the tartrates with a double molar addition of the salts at a reduced temperature (reduced Dutogliptin tartrate solubility).

[1] = listed as sodium cholate, hydrate

SMILES | Solubility 2-8° C. | Solubility 25° C. [mL] | Precipitation after addition of Dutogliptin tartrate solution (hydrate) | Precipitation after addition of Dutogliptin tartrate solution [1] | Solubility 2-8° C. (hydrate) | Solubility 2-8° C. [1]
CCCCCCCCCCCC(=O)[O-].[Na+] [Sodium Laurate] | not soluble | 10 |  |  |  | 
CCCCCCCCCCCCCC(=O)[O-].[Na+] [Sodium Myristate] | not soluble | >10 |  |  |  | 
C[C@H](CCC(=O)[O-])[C@H]1CC[C@H]2[C@@H]3[C@H](O)C[C@@H]4C[C@H](O)CC[C@]4(C)[C@H]3C[C@H](O)[C@]12C.O.[Na+] [Sodium cholate hydrate] |  | 5 | no precipitation | no visual evidence of turbidity or precipitation | 5 mL, clear | remained sufficient soluble
